These results are taken from US20240209028A1, “CNP COMPOUNDS” (priority 2022, published 2024).

Starred links: 1 amine or outer side, 2 acyl side, 3 side chain; linkers in the order of their positions; H or OH if unused. Positions of bridges follow the written chain, without caps; N, C: chain ends. Residues, ends and D or L forms follow the SMILES beside them. *: point of attachment. C20 diacid = O=C(O)CCCCCCCCCCCCCCCCCCC(=O)*; C18 diacid = O=C(O)CCCCCCCCCCCCCCCCC(=O)*; γGlu = O=C(O)[C@H](CCC(=O)[*:2])N[*:1]; AEEA = NCCOCCOCC(=O)O

This assay concerns the target T1, human natriuretic peptide receptor 2 (hNPR2) (Homo sapiens, UniProt P20594).
T1 construct: expressed in transfected cells; host or cells: HEK293 (ATCC CRL-1573), clone 35, co-transfected with pGloSensor-42F
T1 sequence (P20594 23-1047): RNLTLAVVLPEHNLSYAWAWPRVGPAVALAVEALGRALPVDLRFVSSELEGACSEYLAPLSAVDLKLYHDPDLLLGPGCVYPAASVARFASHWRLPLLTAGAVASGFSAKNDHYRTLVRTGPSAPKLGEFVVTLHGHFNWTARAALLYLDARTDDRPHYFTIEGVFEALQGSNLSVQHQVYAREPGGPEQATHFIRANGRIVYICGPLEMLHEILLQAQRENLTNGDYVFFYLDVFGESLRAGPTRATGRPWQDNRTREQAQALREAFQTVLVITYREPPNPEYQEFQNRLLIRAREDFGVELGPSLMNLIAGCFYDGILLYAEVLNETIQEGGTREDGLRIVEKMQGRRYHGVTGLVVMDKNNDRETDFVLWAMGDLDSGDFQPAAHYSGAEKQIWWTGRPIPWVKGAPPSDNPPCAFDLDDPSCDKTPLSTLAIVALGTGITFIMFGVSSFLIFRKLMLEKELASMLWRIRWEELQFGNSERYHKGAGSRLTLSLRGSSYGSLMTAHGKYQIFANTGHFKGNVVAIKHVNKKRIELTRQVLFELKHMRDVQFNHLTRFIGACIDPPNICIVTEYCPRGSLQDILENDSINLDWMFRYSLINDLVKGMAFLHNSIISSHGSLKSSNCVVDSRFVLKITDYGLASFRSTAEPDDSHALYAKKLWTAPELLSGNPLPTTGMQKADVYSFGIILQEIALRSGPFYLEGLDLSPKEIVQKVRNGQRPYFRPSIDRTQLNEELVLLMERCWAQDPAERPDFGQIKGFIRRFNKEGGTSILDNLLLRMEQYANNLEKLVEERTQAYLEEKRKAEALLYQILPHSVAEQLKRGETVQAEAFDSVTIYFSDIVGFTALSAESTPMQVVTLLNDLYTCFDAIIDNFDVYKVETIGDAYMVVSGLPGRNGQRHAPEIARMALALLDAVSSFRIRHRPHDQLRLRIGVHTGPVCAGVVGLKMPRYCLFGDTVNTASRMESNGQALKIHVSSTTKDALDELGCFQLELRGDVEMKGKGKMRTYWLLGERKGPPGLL
Nature of the assay: In vitro hNPR2 activity assay (cGMP GloSensor reporter, HEK293). The assay is classed as cell-based. The conditions noted are these: potency relative to CNP22 (0065). As for the experimental part: To evaluate the in vitro activity of CNP22 (0065; Chem. 1) and CNP compounds of the invention, they were tested for their ability to induce production of cyclic guanosine monophosphate (cGMP) in reporter cells expressing the human natriuretic peptide receptor 2 (hNPR2).
Cell culture: To produce the reporter cell line, HEK293 (ATCC® CRL-1573™) cells were stably transfected with the pGloSensor-42F reporter plasmid (GloSensor cGMP reporter—luciferase, Promega) and an expression plasmid encoding the hNPR2 receptor. A single cell clone was isolated for the reporter cell line. When reporter cells are exposed to an hNPR2 activating compound, hNPR2 cause production of cGMP. […] Active GloSensor luciferase is able to convert luciferin to oxyluciferin, a process that produces bioluminescence. Upon cell lysis and supply of luciferase substrate, luciferase activity can be quantified by detection of luminescence. Therefore, addition of an hNPR2 activating compound and subsequent addition of detection reagent to reporter cells causes generation of luminescence in a dose dependent manner. […] This measure, also referred to as in vitro potency, is reported for all compounds tested. In all the in vitro activity experiments, CNP22 was used as a positive in-plate control for hNPR2 activation. To reduce inter-assay variation, we also report the potency of each compound relative to the potency of the CNP22 control on each plate.
Procedure: HEK293-hNPR2/GloSensor clone 35 cells were continuously cultured in selection medium (DMEM containing 10% FCS, 1% P/S, 200 μg/mL G418 and 100 μg/mL hygromycin). To perform the assay, cells were detached with TrypLE Express (Gibco #12604013), put through a 70 μm cell strainer, counted and seeded in 30 μL/well assay medium (DMEM without phenol red and with 1% P/S) at 10,000 cells/well in white 384-well plates (Perkin Elmer #6007680) overnight. The following day, test compounds were serial diluted in dilution medium (DMEM without phenol red containing 1% OVA (Sigma #A5505 lot 04M7001V), 0.01% Tween20 (Roche #33766700) and 1% P/S) and 10 μL/well of diluted test compounds were subsequently added to the cells. For each compound, ten different concentrations in the range 0.25 μM-10 μM were tested. After 30 min of incubation at 37° C. and 5% CO2, 40 μL/well Bright-Glo detection reagent (Promega #E2650) was added. […] To determine the in vitro potency or EC50 of each test compound, a four parameter logistic regression was done on the raw data for each test compound using the Python package SciPy optimize. The average EC50 values are listed as “hNPR2 0% HSA. [EC50 (nM)]” in Table 2. A relative potency was calculated by the following expression: EC50 (CNP22 in-plate control)/EC50 (test compound)*100, shown as “hNPR2 0% HSA. [EC50% rel CNP]” in Table 2. A minimum of two replicates was measured for each test compound.
With `CC[C@H](C)[C@@H]1NC(=O)[C@H](CCCNC(=N)N)NC(=O)[C@H](CC(=O)O)NC(=O)[C@H](CC(C)C)NC(=O)[C@@H]2CCCN2C(=O)[C@H](CC(C)C)NC(=O)CNC(=O)[C@H](Cc2ccccc2)NC(=O)[C@@H](NC(=O)CNC(=O)[C@H](CCC(N)=O)NC(=O)[C@H](CO)NC(=O)[C@H](CC(C)C)NC(=O)CNC(=O)[C@H](CCCCN)NC(=O)[C@H](CCCCN)NC(=O)[C@H](CCC(N)=O)NC(=O)[C@H](C)NC(=O)CNC(=O)[C@H](Cc2c[nH]cn2)NC(=O)[C@H](Cc2ccc(O)cc2)NC(=O)COCCOCCNC(=O)COCCOCCNC(=O)COCCOCCNC(=O)COCCOCCNC(=O)CC[C@H](NC(=O)CC[C@H](NC(=O)CCCCCCCCCCCCCCCCC(=O)O)C(=O)O)C(=O)O)CSSC[C@@H](C(=O)O)NC(=O)CNC(=O)[C@H](CC(C)C)NC(=O)CNC(=O)[C@H](CO)NC(=O)[C@H](CC(C)C)NC(=O)[C@H](CO)NC(=O)CNC1=O` [compound 1461] ({C18 diacid-γGlu-γGlu-AEEA-AEEA-AEEA-AEEA}-YHGAQKKGLSQGCFGLPLDRIGSLSGLGC-OH; disulfide 13-29), the “hNPR2 0% HSA. [EC50% rel CNP]” value stood at 28.9%.
With `CC[C@H](C)[C@@H]1NC(=O)[C@H](CCCNC(=N)N)NC(=O)[C@H](CC(=O)O)NC(=O)[C@H](CC(C)C)NC(=O)[C@@H]2CCCN2C(=O)[C@H](CC(C)C)NC(=O)CNC(=O)[C@H](Cc2ccccc2)NC(=O)[C@@H](NC(=O)CNC(=O)[C@H](CO)NC(=O)[C@H](CO)NC(=O)[C@H](CC(C)C)NC(=O)CNC(=O)[C@H](CCCCN)NC(=O)[C@H](CCCCN)NC(=O)[C@H](CCC(N)=O)NC(=O)[C@H](C)NC(=O)CNC(=O)[C@H](CCC(=O)O)NC(=O)[C@H](Cc2ccc(O)cc2)NC(=O)[C@H](CO)NC(=O)[C@H](CCCNC(=N)N)NC(=O)[C@H](C)NC(=O)[C@H](CCC(=O)O)NC(=O)[C@@H]2CCCN2C(=O)[C@H](Cc2c[nH]cn2)NC(=O)[C@H](CCC(=O)O)NC(=O)[C@H](CCC(N)=O)NC(=O)COCCOCCNC(=O)COCCOCCNC(=O)CC[C@H](NC(=O)CCCCCCCCCCCCCCCCC(=O)O)C(=O)O)CSSC[C@@H](C(=O)O)NC(=O)CNC(=O)[C@H](CC(C)C)NC(=O)CNC(=O)[C@H](CO)NC(=O)[C@H](CC(C)C)NC(=O)[C@H](CO)NC(=O)CNC1=O` [compound 1380] ({C18 diacid-γGlu-AEEA-AEEA}-QEHPEARSYEGAQKKGLSSGCFGLPLDRIGSLSGLGC-OH; disulfide 21-37; C-terminus assumed), the “hNPR2 0% HSA. [EC50% rel CNP]” value worked out at 15.7%.
Turning to `CC[C@H](C)[C@@H]1NC(=O)[C@H](CCCNC(=N)N)NC(=O)[C@H](CC(=O)O)NC(=O)[C@H](CC(C)C)NC(=O)[C@@H]2CCCN2C(=O)[C@H](CC(C)C)NC(=O)CNC(=O)[C@H](Cc2ccccc2)NC(=O)[C@@H](NC(=O)CNC(=O)[C@H](CCC(N)=O)NC(=O)[C@H](CO)NC(=O)[C@H](CC(C)C)NC(=O)CNC(=O)[C@H](CCCCN)NC(=O)[C@H](CCCCN)NC(=O)[C@H](CCC(N)=O)NC(=O)[C@H](C)NC(=O)CNC(=O)[C@@H]2CCCN2C(=O)[C@H](C)NC(=O)[C@H](CCC(N)=O)NC(=O)CNC(=O)[C@@H]2CCCN2C(=O)[C@H](C)NC(=O)[C@H](CCC(N)=O)NC(=O)CNC(=O)[C@@H]2CCCN2C(=O)[C@H](C)NC(=O)[C@H](CCC(N)=O)NC(=O)CNC(=O)COCCOCCNC(=O)COCCOCCNC(=O)CC[C@H](NC(=O)CCCCCCCCCCCCCCCCC(=O)O)C(=O)O)CSSC[C@@H](C(=O)O)NC(=O)CNC(=O)[C@H](CC(C)C)NC(=O)CNC(=O)[C@H](CO)NC(=O)[C@H](CC(C)C)NC(=O)[C@H](CO)NC(=O)CNC1=O` [compound 1487] ({C18 diacid-γGlu-AEEA-AEEA}-GQAPGQAPGQAPGAQKKGLSQGCFGLPLDRIGSLSGLGC-OH; disulfide 23-39), the “hNPR2 0% HSA. [EC50% rel CNP]” value is given as 22.0%.
In the case of `CC[C@H](C)[C@@H]1NC(=O)[C@H](CCCNC(=N)N)NC(=O)[C@H](CC(=O)O)NC(=O)[C@H](CC(C)C)NC(=O)[C@@H]2CCCN2C(=O)[C@H](CC(C)C)NC(=O)CNC(=O)[C@H](Cc2ccccc2)NC(=O)[C@@H](NC(=O)CNC(=O)[C@H](CO)NC(=O)[C@H](CO)NC(=O)[C@H](CC(C)C)NC(=O)CNC(=O)[C@H](CCC(=O)O)NC(=O)[C@H](CCCCN)NC(=O)[C@H](CCC(N)=O)NC(=O)[C@H](C)NC(=O)CNC(=O)[C@H](CCC(=O)O)NC(=O)COCCOCCNC(=O)COCCOCCNC(=O)CC[C@H](NC(=O)CCCCCCCCCCCCCCCCC(=O)O)C(=O)O)CSSC[C@@H](C(=O)O)NC(=O)CNC(=O)[C@H](CC(C)C)NC(=O)CNC(=O)[C@H](CO)NC(=O)[C@H](CC(C)C)NC(=O)[C@H](CO)NC(=O)CNC1=O` [compound 1288] ({C18 diacid-γGlu-AEEA-AEEA}-EGAQKEGLSSGCFGLPLDRIGSLSGLGC-OH; disulfide 12-28), the “hNPR2 0% HSA. [EC50% rel CNP]” value is 3.0%.
The value for `CC[C@H](C)[C@@H]1NC(=O)[C@H](CCCNC(=N)N)NC(=O)[C@H](CC(=O)O)NC(=O)[C@H](CC(C)C)NC(=O)[C@@H]2CCCN2C(=O)[C@H](CC(C)C)NC(=O)CNC(=O)[C@H](Cc2ccccc2)NC(=O)[C@@H](NC(=O)CNC(=O)[C@H](CCC(N)=O)NC(=O)[C@H](CO)NC(=O)[C@H](CO)NC(=O)CNC(=O)[C@H](CCCCN)NC(=O)[C@H](CCCCN)NC(=O)[C@H](CCC(N)=O)NC(=O)[C@H](C)NC(=O)CNC(=O)[C@H](CCCCN)NC(=O)[C@H](Cc2ccc(O)cc2)NC(=O)[C@H](Cc2c[nH]cn2)NC(=O)[C@H](CCCNC(=N)N)NC(=O)[C@H](C)NC(=O)[C@H](CCC(N)=O)NC(=O)[C@@H]2CCCN2C(=O)[C@H](Cc2c[nH]cn2)NC(=O)[C@H](CCC(=O)O)NC(=O)[C@H](CCC(N)=O)NC(=O)COCCOCCNC(=O)COCCOCCNC(=O)CC[C@H](NC(=O)CC[C@H](NC(=O)CC[C@H](NC(=O)CC[C@H](NC(=O)CCCCCCCCCCCCCCCCCCC(=O)O)C(=O)O)C(=O)O)C(=O)O)C(=O)O)CSSC[C@@H](C(=O)O)NC(=O)CNC(=O)[C@H](CC(C)C)NC(=O)CNC(=O)[C@H](CO)NC(=O)[C@H](CC(C)C)NC(=O)[C@H](CO)NC(=O)CNC1=O` [compound 1399] ({C20 diacid-γGlu-γGlu-γGlu-γGlu-AEEA-AEEA}-QEHPQARHYKGAQKKGSSQGCFGLPLDRIGSLSGLGC-OH; disulfide 21-37) was 137.0%.
